# In ChEMBL document CHEMBL5725901, “[7,6]-fused bicyclic antidiabetic compounds” (2018):
# Target: Free fatty acid receptor 1 (Homo sapiens, UniProt O14842)
# Experiment: FLIPR Assay: FLIPR (Fluorimetric Imaging Plate Reader, Molecular Devices) assays were performed to measure agonist-induced calcium mobilization of the stable clones. For the FLIPR assay, one day before assay, GPR40/CHO NFAT BLA cells were seeded into black-wall-clear-bottom 384-well plates (Costar) at 1.4×10e4 cells/20 μL medium/well. The cells were incubated with 20 μl/well of the assay buffer (HBSS, 0.1% BSA, 20 mM HEPES, 2.5 mM probenecid, pH 7.4) containing 8 μM fluo-4,AM, 0.08% pluronic acid at room temperature for 100 minutes. Fluorescence output was measured using FLIPR. Compounds were dissolved in DMSO and diluted to desired concentrations with assay buffer. 13.3 μL/well of compound solution was added.
# Chain of Free fatty acid receptor 1 (O14842 whole entry): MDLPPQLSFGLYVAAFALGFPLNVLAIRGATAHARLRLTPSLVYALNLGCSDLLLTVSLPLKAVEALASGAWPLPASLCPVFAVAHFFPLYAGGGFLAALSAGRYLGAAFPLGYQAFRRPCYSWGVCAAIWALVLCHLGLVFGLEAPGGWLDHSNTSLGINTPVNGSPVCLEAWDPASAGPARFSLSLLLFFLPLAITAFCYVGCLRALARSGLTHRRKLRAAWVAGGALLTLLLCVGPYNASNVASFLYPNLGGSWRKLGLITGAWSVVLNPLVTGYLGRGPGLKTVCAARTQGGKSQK
smiles,measurement,value
Cc1cccc(C)c1-c1cccc(C2CCCc3cc(CCC(=O)O)ccc3O2)c1 (stereo unspecified),EC50,3.3 µM
